According to patent US11141410B2 (MERCK SHARP & DOHME CORP., priority 2015, dated 2021):
Like-named read-outs stand apart in the source and are kept apart here.

Columns and labels:
MRSA COL (MB5393) [1] = experiment: TarO Inhibitor/β-Lactam Synergy Assay (growth, OD600); format: cell-based, Staphylococcus aureus; details: for MITC95 TarO inhibitor + 4 μg/mL IPM; Bacteria: SA_MB5393: in combination with 4 μg/mL imipenem (IPM); for MITC95 TarO inhibitor + 8 μg/mL DCX; Bacteria: SA_MB5393: in combination with 8 μg/mL dicloxacillin (DCX)
Summary of the method: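 TarO inhibitors titrated 2-fold from 200 μM (2% DMSO) against MRSA COL, 5×10^5 CFU in CAMHB, with β-lactam fixed at clinical breakpoint (imipenem 4 μg/ml or dicloxacillin 8 μg/ml). Incubated 20 h at 37 °C without shaking; relative growth read as OD600.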

MRSA COL (MB5393) [2] = experiment: as above; format: cell-based; details: Staphylococcus aureus, read-out: MITC95 TarO inhibitor alone, Bacteria: SA_MB5393
[3] = TarO inhibitor alone, >200 μM = 95% growth inhibition not achieved, 20 hours at 37° C.

SMILES | MITC95 TarO inhibitor + 4 μg/mL IPM; Bacteria: SA_MB5393 (MRSA COL (MB5393) [1]) [µM] | MITC95 TarO inhibitor + 8 μg/mL DCX; Bacteria: SA_MB5393 (MRSA COL (MB5393) [1]) [µM] | IC95 (MRSA COL (MB5393) [2]; [3]) [µM] | IC95 (MRSA COL (MB5393) [2]; 20 h) [µM]
O=C(NCc1cccc2cncnc12)N1C(=O)O[C@H](c2cc(C(F)(F)F)cc(C(F)(F)F)c2)[C@@H]1CO [Example 54, (4S,5R)-5-[3,5-bis(trifluoromethyl)phenyl]-4-(hydroxymethyl)-2-oxo-N-(quinazolin-8-yl-methyl)-1,3-oxazolidine-3-carboxamide] | 0.20 | 0.65 | > 200 | –
COc1cc([C@H]2OC(=O)N(C(=O)NCc3cncc4ccccc34)[C@H]2CO)cc(C(F)(F)F)c1 [Example 55, (4S,5R)-4-(hydroxymethyl)-N-(isoquinolin-4-ylmethyl)-5-[3-methoxy-5-(trifluoromethyl)phenyl]-2-oxo-1,3-oxazolidine-3-carboxamide] | 0.30 | 1.18 | > 200 | –
O=C(NCc1cncc2ccccc12)N1C(=O)O[C@H](c2cc(F)cc(C(F)(F)F)c2)[C@@H]1CO [Example 57, (4S,5R)-5-[3-fluoro-5-(trifluoromethyl)phenyl]-4-(hydroxymethyl)-N-(isoquinolin-4-ylmethyl)-2-oxo-1,3-oxazolidine-3-carboxamide] | 0.33 | 1.56 | > 200 | –
COc1cc([C@H]2OC(=O)N(C(=O)NCc3cccc4nccnc34)[C@H]2CO)cc(C(F)(F)F)c1 [Example 58, (4S,5R)-4-(hydroxymethyl)-5-[3-methoxy-5-(trifluoromethyl)phenyl]-2-oxo-N-(quinoxalin-5-ylmethyl)-1,3-oxazolidine-3-carboxamide] | 1.56 | 6.25 | > 200 | –
COc1cc([C@H]2OC(=O)N(C(=O)NCc3cccc4cncnc34)[C@H]2CO)cc(C(F)(F)F)c1 [Example 59, (4S,5R)-4-(hydroxymethyl)-5-[3-methoxy-5-(trifluoromethyl)phenyl]-2-oxo-N-(quinazolin-8-ylmethyl)-1,3-oxazolidine-3-carboxamide] | 1.95 | 10.42 | > 200 | –
COc1cc(C(F)(F)F)cc([C@H]2OC(=O)N(C(=O)NCc3cncc4cccnc34)[C@H]2C)n1 [Example 60, (4S,5S)—N-((1,6-naphthyridin-8-yl)methyl)-5-(6-methoxy-4-(trifluoromethyl)pyridin-2-yl)-4-methyl-2-oxooxazolidine-3-carboxamide] | 0.33 | 1.45 | > 200 | –
COc1cc(C(F)(F)F)cc([C@H]2OC(=O)N(C(=O)NCc3cncc4ccccc34)[C@H]2CO)n1 [Example 63, (4S,5S)-4-(hydroxymethyl)-N-(isoquinolin-4-ylmethyl)-5-(6-methoxy-4-(trifluoromethyl)-pyridin-2-yl)-2-oxooxazolidine-3-carboxamide] | 0.37 | 1.13 | – | > 200
COc1cc(C(F)(F)F)cc([C@H]2OC(=O)N(C(=O)NCc3cncc4cccnc34)[C@H]2CO)n1 [Example 64, (4S,5S)-4-(hydroxymethyl)-5-[6-methoxy-4-(trifluoromethyl)pyridin-2-yl]-N-(1,6-naphthyridin-8-ylmethyl)-2-oxo-1,3-oxazolidine-3-carboxamide] | 0.94 | 4.38 | > 200 | –
C[C@H]1[C@@H](c2cc(C(F)(F)F)cc(C(F)(F)F)c2)OC(=O)N1C(=O)CCc1cncc2ccccc12 [Example 65, (4S,5R)-5-(3,5-bis(trifluoromethyl)phenyl)-3-(3-(isoquinolin-4-yl)propanoyl)-4-methyloxazolidin-2-one] | 0.06 | 0.20 | > 200 | –
C[C@H]1[C@@H](c2cc(Cl)cc(C(F)(F)F)c2)OC(=O)N1C(=O)CCc1cccc2ccccc12 [Example 66, (4S,5R)-5-[3-chloro-5-(trifluoromethyl)phenyl]-4-methyl-3-(3-naphthalen-1-ylpropanoyl)-1,3-oxazolidin-2-one] | 0.03 | 0.20 | > 200 | –
C[C@H]1[C@@H](c2cc(C(F)(F)F)cc(C(F)(F)F)c2)OC(=O)N1C(=O)CCc1cccc2ccccc12 [Example 67, (4S,5R)-5-[3,5-bis(trifluoromethyl)phenyl]-4-methyl-3-(3-naphthalen-1-ylpropanoyl)-1,3-oxazolidin-2-one] | 0.01 | – | > 200 | –
C[C@H]1[C@@H](c2cc(C(F)(F)F)cc(C(F)(F)F)c2)OC(=O)N1C(=O)CCc1cccc2sccc12 [Example 68, (4S,5R)-3-[3-(1-benzothiophen-4-yl)propanoyl]-5-[3,5-bis(trifluoromethyl)phenyl]-4-methyl-1,3-oxazolidin-2-one] | 0.01 | 0.20 | > 200 | –
C[C@H]1[C@@H](c2cccc(OC(F)(F)F)c2)OC(=O)N1C(=O)CCc1cccc2ccccc12 [Example 69, (4S,5R)-4-methyl-3-(3-naphthalen-1-ylpropanoyl)-5-[3-(trifluoromethoxy)phenyl]-1,3-oxazolidin-2-one] | 0.11 | 0.39 | > 200 | –
C[C@H]1[C@@H](c2cc(F)cc(C(F)(F)F)c2)OC(=O)N1C(=O)CCc1cncc2ccccc12 [Example 70, (4S,5R)-5-[3-fluoro-5-(trifluoromethyl)phenyl]-3-(3-isoquinolin-4-ylpropanoyl)-4-methyl-1,3-oxazolidin-2-one] | 0.19 | 0.91 | > 200 | –
C[C@H]1[C@@H](c2cc(C(F)(F)F)cc(C(F)(F)F)c2)OC(=O)N1C(=O)Cc1cccc2ccccc12 [Example 71, (4S,5R)-5-[3,5-bis(trifluoromethyl)phenyl]-4-methyl-3-(naphthalen-1-ylacetyl)-1,3-oxazolidin-2-one] | 0.89 | – | > 200 | –
C[C@H]1[C@@H](c2cccc(OC(F)(F)F)c2)OC(=O)N1C(=O)CCc1cncc2ccccc12 [Example 72, (4S,5R)-3-(3-isoquinolin-4-ylpropanoyl)-4-methyl-5-[3-(trifluoromethoxy)phenyl]-1,3-oxazolidin-2-one] | 0.21 | 1.56 | > 200 | –
C[C@H]1[C@@H](c2cc(C(F)(F)F)cc(C(F)(F)F)c2)OC(=O)N1C(=O)CCc1cccc2ncccc12 [Example 73, (4S,5R)-5-[3,5-bis(trifluoromethyl)phenyl]-4-methyl-3-(3-quinolin-5-ylpropanoyl)-1,3-oxazolidin-2-one] | 0.56 | 6.25 | > 200 | –
Cc1cc([C@H]2OC(=O)N(C(=O)CCc3cccc4cnccc34)[C@H]2C)cc(C(F)(F)F)c1 [Example 74, (4S,5R)-3-(3-isoquinolin-5-ylpropanoyl)-4-methyl-5-[3-methyl-5-(trifluoromethyl)phenyl]-1,3-oxazolidin-2-one] | 0.30 | 6.25 | > 200 | –
C[C@H]1[C@@H](c2cc(C(F)(F)F)cc(C(F)(F)F)c2)OC(=O)N1C(=O)CCc1cccc2ccncc12 [Example 75, (4S,5R)-5-[3,5-bis(trifluoromethyl)phenyl]-3-(3-isoquinolin-8-ylpropanoyl)-4-methyl-1,3-oxazolidin-2-one] | 0.13 | 0.78 | > 200 | –
O=C(CCc1cncc2ccccc12)N1CC(c2cc(C(F)(F)F)cc(C(F)(F)F)c2)OC1=O (stereo not drawn) [Example 76, 5-[3,5-bis(trifluoromethyl)phenyl]-3-(3-isoquinolin-4-ylpropanoyl)-1,3-oxazolidin-2-one] | 0.39 | – | > 200 | –
Cc1cc(C)cc([C@H]2OC(=O)N(C(=O)CCc3cncc4ccccc34)[C@H]2C)c1 [Example 77, (4S,5R)-5-(3,5-dimethylphenyl)-3-(3-isoquinolin-4-ylpropanoyl)-4-methyl-1,3-oxazolidin-2-one] | 0.63 | 5.21 | > 200 | –
